Reference: patent US20100267825A1, “TREATMENT OF SKIN DAMAGE” (Eukarion, Inc., priority 2009, published 2010)

Legend:
[1] = In vitro catalase activity (colorimetric peroxidase/ABTS-coupled assay); type: biochemical; settings: relative to C7 (EUK-8) set at 100%, 10 μM compound, 100 μM hydrogen peroxide
Method: The catalase activity of SOD/Catalase mimetics used in the process was determined as previously described by Doctrow et al., 2002, J. Med. Chem. 45, 4549-4558. Briefly, catalase activity was measured by incubating the sample compound with hydrogen peroxide and determining the amount of hydrogen peroxide remaining after a period of time using a colorimetric peroxidase-coupled assay method. 10 μM sample compound and 100 μM hydrogen peroxide in 40 mM sodium phosphate pH 7.4 were incubated together at ambient temperature in a multi-well plate. After the desired reaction period had elapsed, 20 μl of peroxidase/ABTS reagent was added (peroxidase/ABTS reagent contained […] of 50 mM Na phosphate, pH 7.4, 1 mg horseradish peroxidase (1310 U/mg) and 1.6 g ABTS). After five minutes, absorbance at 750 nm was determined.
The amount of hydrogen peroxide remaining was calculated based on a standard curve. To compare rates of catalase reaction, the amount of hydrogen peroxide consumed at 20 minutes was determined.
(rate obtained for SOD/Catalase mimetic)/(rate obtained for C7 (EUK-8))×100%

[2] = tested on: radiation-induced apoptosis; experiment: Protection against radiation-induced apoptosis / anti-apoptotic activity; type: cell-based
Cytotoxicity = type: cell-based
[3] = salen-metal complexes, pH 7.4, hydrogen peroxide consumed at 20 minutes
[4] = orally bioavailable metalloporphyrin derivatives, pH 7.4, 20 minutes

SMILES | Relative Catalase Rate [1, 3] | also measured
[Cl-].[Mn+3].[O-]c1ccccc1C=NCCN=Cc1ccccc1[O-] [C7 (EUK-8)] | 100% | 
COc1ccc(C=NCCN=Cc2ccc(OC)cc2[O-])c([O-])c1.[Cl-].[Mn+3] [C34] | 46% | 
C1=Cc2nc1cc1ccc([n-]1)c(Cc1ccccc1)c1nc(cc3ccc([n-]3)c2Cc2ccccc2)C=C1.CC(=O)[O-].[Mn+3] [EUK-423, {[{(Porphine-5,15-diyl)bis[benzyl-diyl]}] (2-)-N^21, N^22, N^23, N^24} manganese(III) acetate] |  | Relative Catalase Rate [1, 4]: 56%; protective effect against radiation-induced apoptosis (in words) [2]: protective effect against radiation-induced apoptosis
CC(=O)[O-].COc1ccc(C=NCCN=Cc2ccc(OC)cc2[O-])c([O-])c1.[Mn+3] [C33] | 38% | 
CC(=O)[O-].COc1cccc(C=NCCN=Cc2cccc(OC)c2[O-])c1[O-].[Mn+3] [C32] | 188% | 
CC(=O)[O-].[Mn+3].[O-]c1c(F)cccc1C=NCCN=Cc1cccc(F)c1[O-] [C36] | 128% | 
C1=Cc2nc1cc1ccc([n-]1)c(C1CC1)c1nc(cc3ccc([n-]3)c2C2CC2)C=C1.CC(=O)[O-].[Mn+3] [EUK-418, {[{(Porphine-5,15-diyl)bis[cyclopropyl-diyl]}] (2-)-N^21, N^22, N^23, N^24} manganese(III) acetate] |  | Relative Catalase Rate [1, 4]: 70%; protective effect against radiation-induced apoptosis (in words) [2]: protective effect against radiation-induced apoptosis
CC(=O)[O-].COc1cc([O-])c(C=NCCN=Cc2c([O-])cc(OC)cc2OC)c(OC)c1.[Mn+3] [C35] | 25% | 
COc1cccc(C=Nc2ccccc2N=Cc2cccc(OC)c2[O-])c1[O-].[Cl-].[Mn+3] [C81] | 493% | 
CC(=O)[O-].[Mn+3].[O-]c1ccccc1CNCCNCc1ccccc1[O-] [C83] | 42% | 
[Cl-].[Mn+3].[O-]c1ccccc1CNCCNCc1ccccc1[O-] [C84] | 31% | 
CC(=O)[O-].COc1cc(Br)c([O-])c(C=Nc2ccccc2N=Cc2cc(OC)cc(Br)c2[O-])c1.[Mn+3] [C76] | 427% | 
COc1cccc(C=NCCN=Cc2cccc(OC)c2[O-])c1[O-].[Cl-].[Mn+3] [C40 (EUK-134)] | 155% | 
C1=Cc2nc1cc1ccc([n-]1)c(C1CCCCC1)c1nc(cc3ccc([n-]3)c2C2CCCCC2)C=C1.[Cl-].[Mn+3] [EUK-452, {[{(Porphine-5,15-diyl)bis[cyclohexyl-diyl]}] (2-)-N^21, N^22, N^23, N^24} manganese(III) chloride] |  | Relative Catalase Rate [1, 4]: 105%; protective effect against radiation-induced apoptosis (in words) [2]: protective effect against radiation-induced apoptosis
CC(=NCCN=C(C)c1ccccc1[O-])c1ccccc1[O-].CC(=O)[O-].[Mn+3] [C85] | 31% | 
CC(=O)[O-].COc1ccc(-c2c3nc(cc4ccc([n-]4)c(-c4ccc(OC)cc4)c4nc(cc5ccc2[n-]5)C=C4)C=C3)cc1.[Mn+3] [EUK-450, {[{(Porphine-5,15-diyl)bis[benzene-1,4 diyl (4-methyl-oxy)]}](2-)-N^21, N^22, N^23, N^24} manganese(III) acetate] |  | Relative Catalase Rate [1, 4]: 84%; protective effect against radiation-induced apoptosis (in words) [2]: protective effect against radiation-induced apoptosis
CC(=O)[O-].[Mn+3].[O-]c1ccccc1C=NCCN=Cc1ccccc1[O-] [C31] | 92% | 
CC(=O)[O-].CCc1c2nc(c(CC)c3ccc([n-]3)c(CC)c3nc(c(CC)c4ccc1[n-]4)C=C3)C=C2.[Mn+3] [EUK-425, (5,10,15,20-Tetraethylporphyrinato) manganese (III) acetate] |  | Relative Catalase Rate [1, 4]: 84%
[Cl-].[Mn+3].[O-]c1c(F)cccc1C=NCCN=Cc1cccc(F)c1[O-] [C37] | 117% | 
CC(=O)[O-].[Mn+3].[O-]c1c2cccc1OCCOCCOCCOc1cccc(c1[O-])C=Nc1ccccc1N=C2 [C82] | 345% | 
C1=Cc2nc1cc1ccc([n-]1)c(C1CCOCC1)c1nc(cc3ccc([n-]3)c2C2CCOCC2)C=C1.[Cl-].[Mn+3] [EUK-451, {[{(Porphine-5,15-diyl)bis[4-Tetrahydropyrano-diyl]}](2-)-N^21, N^22, N^23, N^24} manganese(III) chloride] |  | Relative Catalase Rate [1, 4]: 140%; cytotoxicity (in words) (Cytotoxicity): low; anti-apoptotic activity (in words) [2]: high; protective effect against radiation-induced apoptosis (in words) [2]: protective effect against radiation-induced apoptosis
